{
  "source": "patent US20260224716A1",
  "about": "“PTH ANALOGS FOR THE TREATMENT OF HYPOPARATHYROIDISM” (priority 2020, published 2026)",
  "key": {"[1]": {"assay": "Rate of model dipeptide cleavage from hexapeptide in PBS (HPLC, LC-MS)", "assay_type": "physicochemical", "settings": "for half-life at 1 mg/ml: buffer", "protocol": "The solution was incubated at 37° C.\nThe flow rate was 1 ml/min."}, "[2]": {"assay": "Cleavage half-life / conversion of PTH prodrugs in PBS pH 7.4, 37° C. by LC-MS", "assay_type": "physicochemical", "settings": "PBS buffer; dipeptide cleavage from PTH prodrug, PBS pH 7.4, 37° C.; read-out: Half life (converted)", "protocol": "The resulting solution was incubated at 37° C. Aliquots were taken at designed time points and analyzed by LC-MS. […] Flow rate of 1 mL/min and a gradient of 10%-80% acetonitrile in water, with 0.1% trifluoroacetic acid over 10 min. […] The concentration of prodrug and drug were determined by their relative peak areas. The […] dissociation rate constant of the prodrug was determined by plotting the logarithm in the concentration of the prodrug at various time points."}, "[3]": {"molecular_target": "T1, PTH1 receptor (Homo sapiens, UniProt Q03431)", "T1 construct": "expressed in transfected cells; host or cells: HEK293", "T1 sequence (Q03431 27-593)": "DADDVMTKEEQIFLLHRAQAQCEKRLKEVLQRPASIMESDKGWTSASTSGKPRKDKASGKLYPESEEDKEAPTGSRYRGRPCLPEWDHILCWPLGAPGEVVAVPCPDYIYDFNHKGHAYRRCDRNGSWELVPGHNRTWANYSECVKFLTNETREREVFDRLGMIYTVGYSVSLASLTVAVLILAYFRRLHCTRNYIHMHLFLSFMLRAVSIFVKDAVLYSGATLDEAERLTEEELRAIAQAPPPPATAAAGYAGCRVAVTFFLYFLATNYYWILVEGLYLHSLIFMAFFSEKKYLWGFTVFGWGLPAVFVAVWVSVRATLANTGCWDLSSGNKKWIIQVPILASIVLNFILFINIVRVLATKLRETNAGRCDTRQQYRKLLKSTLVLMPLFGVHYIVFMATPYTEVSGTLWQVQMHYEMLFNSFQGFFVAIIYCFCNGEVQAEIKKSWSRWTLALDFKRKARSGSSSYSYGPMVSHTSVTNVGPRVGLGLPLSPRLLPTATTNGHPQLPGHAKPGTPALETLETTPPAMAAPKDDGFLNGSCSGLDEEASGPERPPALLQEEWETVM", "assay": "Luciferase-based reporter gene assay for cAMP detection (HEK293 cells)", "assay_type": "cell-based", "settings": "for potency at the PTH receptor: luciferase reporter of cAMP production; for EC50: HEK293 cells, PTH1 receptor, cAMP-responsive luciferase, 5 hours, read-out: Potency EC50", "protocol": "At the end of the incubation, 50 μL of Steady-Lite Plus (PerkinElmer, Waltham, MA) were added to each well. The plate was shaken briefly, incubated four minutes and light output was measured on an EnSpire Alpha Multi-mode Plate Reader (PerkinElmer, Waltham, MA)."}},
  "note": "*1 amine or outer side, *2 acyl side, *3 side chain or, on linkers, in order; H or OH if unused. Where a SMILES comes first, the peptide text is derived from it. Where no end group is shown, it is not given here. Side-chain parts run from the residue outwards. [ ]: non-standard residue; d: D form. The star is where a group is joined. C18 diacid = O=C(O)CCCCCCCCCCCCCCCCC(=O)*; γGlu = O=C(O)[C@H](CCC(=O)[*:2])N[*:1]; AEEA = NCCOCCOCC(=O)O; Aib = CC(C)(N)C(=O)O",
  "data": [
    {"molecule": "C[C@@H](O)[C@H](NC(=O)CNC(=O)[C@H](CCCNC(=N)N)NC(=O)[C@H](CO)NC(=O)[C@@H](Cc1c[nH]cn1)NC(=O)[C@@H]1CCCN1C(=O)C(C)(C)N)C(=O)N[C@@H](Cc1ccccc1)C(N)=O", "note": "[compound 16] (H-[Aib]P[dH]SRGTF-NH2)", "values": [
      {"measurement": "half-life at 1 mg/ml", "setting": "[1]", "value": 16, "unit": "h"}
    ]},
    {"molecule": "C[C@@H](O)[C@H](NC(=O)CNC(=O)[C@H](CCCNC(=N)N)NC(=O)[C@H](CO)NC(=O)[C@H](Cc1c[nH]cn1)NC(=O)[C@H]1CCCN1C(=O)C(C)(C)N)C(=O)N[C@@H](Cc1ccccc1)C(N)=O", "note": "[compound 15] (H-[Aib][dP]HSRGTF-NH2)", "values": [
      {"measurement": "half-life at 1 mg/ml", "setting": "[1]", "value": 20, "unit": "h"}
    ]},
    {"molecule": "CC[C@H](C)[C@H](NC(=O)[C@H](CCC(=O)O)NC(=O)[C@H](CO)NC(=O)[C@@H](NC(=O)[C@H](CO)NC(=O)CN(C)C(=O)[C@H](N)CCCCNC(=O)CC[C@H](NC(=O)CCCCCCCCCCCCCCCCC(=O)O)C(=O)O)C(C)C)C(=O)N[C@@H](CCC(N)=O)C(=O)N[C@@H](CC(C)C)C(=O)N[C@@H](CCSC)C(=O)N[C@@H](Cc1c[nH]cn1)C(=O)N[C@@H](CC(N)=O)C(=O)N[C@@H](CC(C)C)C(=O)NCC(=O)N[C@@H](CCCCN)C(=O)N[C@@H](Cc1c[nH]cn1)C(=O)N[C@@H](CC(C)C)C(=O)N[C@@H](CC(N)=O)C(=O)N[C@@H](CO)C(=O)N[C@@H](CCSC)C(=O)N[C@@H](CCC(=O)O)C(=O)N[C@@H](CCCNC(=N)N)C(=O)N[C@H](C(=O)N[C@@H](CCC(=O)O)C(=O)N[C@@H](Cc1c[nH]c2ccccc12)C(=O)N[C@@H](CC(C)C)C(=O)N[C@@H](CCCNC(=N)N)C(=O)N[C@@H](CCCCN)C(=O)N[C@@H](CCCCN)C(=O)N[C@@H](CC(C)C)C(=O)N[C@@H](CCC(N)=O)C(=O)N[C@@H](CC(=O)O)C(=O)N[C@H](C(=O)N[C@@H](Cc1c[nH]cn1)C(=O)N[C@@H](CC(N)=O)C(=O)N[C@@H](Cc1ccccc1)C(=O)O)C(C)C)C(C)C", "note": "[SEQ ID NO: 45]", "values": [
      {"measurement": "half-life", "setting": "[2]", "value": 90, "unit": "h"},
      {"measurement": "potency at the PTH receptor", "setting": "[3]; FIGS. 3A, 3B", "value": "decreases the potency"},
      {"measurement": "EC50", "setting": "[3]", "value": 45.5, "unit": "nM"}
    ]},
    {"molecule": "CC[C@H](C)[C@H](NC(=O)[C@H](CCC(=O)O)NC(=O)[C@H](CO)NC(=O)[C@@H](NC(=O)[C@H](CO)NC(=O)CN(C)C(=O)[C@H](N)CCCCNC(=O)CC[C@H](NC(=O)CCCCCCCCCCCCCCCCC(=O)O)C(=O)O)C(C)C)C(=O)N[C@@H](CCC(N)=O)C(=O)N[C@@H](CC(C)C)C(=O)N[C@@H](CCSC)C(=O)N[C@@H](Cc1c[nH]cn1)C(=O)N[C@@H](CC(N)=O)C(=O)N[C@@H](CC(C)C)C(=O)NCC(=O)N[C@@H](CCCCN)C(=O)N[C@@H](Cc1c[nH]cn1)C(=O)N[C@@H](CC(C)C)C(=O)N[C@@H](CC(N)=O)C(=O)N[C@@H](CO)C(=O)N[C@@H](CCSC)C(=O)N[C@@H](CCC(=O)O)C(=O)N[C@@H](CCCNC(=N)N)C(=O)N[C@H](C(=O)N[C@@H](CCC(=O)O)C(=O)N[C@@H](Cc1c[nH]c2ccccc12)C(=O)N[C@@H](CC(C)C)C(=O)N[C@@H](CCCNC(=N)N)C(=O)N[C@@H](CCCCN)C(=O)N[C@@H](CCCCN)C(=O)N[C@@H](CC(C)C)C(=O)N[C@@H](CCC(N)=O)C(=O)N[C@@H](CC(=O)O)C(=O)N[C@H](C(=O)N[C@@H](Cc1c[nH]cn1)C(=O)N[C@@H](CC(N)=O)C(=O)N[C@@H](Cc1ccccc1)C(=O)N[C@@H](CCCCNC(=O)CC[C@H](NC(=O)CCCCCCCCCCCCCCCCC(=O)O)C(=O)O)C(N)=O)C(C)C)C(C)C", "note": "[SEQ ID NO: 58]", "values": [
      {"measurement": "half-life", "setting": "[2]", "value": 73, "unit": "h"},
      {"measurement": "potency at the PTH receptor", "setting": "[3]; FIGS. 3A, 3B", "value": "low potency"}
    ]},
    {"molecule": "12 (SVSEIQLMHNLGKHLNSMERVEWLRKKLQDVHNFX; VARIANT 35 MISC_FEATURE - Xaa at position 35 is an acylated Lys; SITE 35 MISC_FEATURE - C-terminal carboxyl group replaced with an amide; listed as Homo sapiens) [compound 12]", "values": [
      {"measurement": "t1/2", "setting": "[1]; cleavage of dipeptide A-B from model hexapeptide in PBS, 37° C., unit not given or result in words", "value": "No cleavage"}
    ]},
    {"molecule": "CC[C@H](C)[C@H](NC(=O)[C@H](CCC(=O)O)NC(=O)[C@H](CO)NC(=O)[C@@H](NC(=O)[C@@H](N)CO)C(C)C)C(=O)N[C@@H](CCC(N)=O)C(=O)N[C@@H](CC(C)C)C(=O)N[C@@H](CCSC)C(=O)N[C@@H](Cc1c[nH]cn1)C(=O)N[C@@H](CC(N)=O)C(=O)N[C@@H](CC(C)C)C(=O)NCC(=O)N[C@@H](CCCCN)C(=O)N[C@@H](Cc1c[nH]cn1)C(=O)N[C@@H](CC(C)C)C(=O)N[C@@H](CC(N)=O)C(=O)N[C@@H](CO)C(=O)N[C@@H](CCSC)C(=O)N[C@@H](CCC(=O)O)C(=O)N[C@@H](CCCNC(=N)N)C(=O)N[C@H](C(=O)N[C@@H](CCC(=O)O)C(=O)N[C@@H](Cc1c[nH]c2ccccc12)C(=O)N[C@@H](CC(C)C)C(=O)N[C@@H](CCCNC(=N)N)C(=O)N[C@@H](CCCCN)C(=O)N[C@@H](CCCCN)C(=O)N[C@@H](CC(C)C)C(=O)N[C@@H](CCC(N)=O)C(=O)N[C@@H](CC(=O)O)C(=O)N[C@H](C(=O)N[C@@H](Cc1c[nH]cn1)C(=O)N[C@@H](CC(N)=O)C(=O)N[C@@H](Cc1ccccc1)C(=O)N[C@@H](CCCCNC(=O)CC[C@H](NC(=O)CCCCCCCCCCCCCCCCC(=O)O)C(=O)O)C(N)=O)C(C)C)C(C)C", "note": "[SEQ ID NO: 56]", "values": [
      {"measurement": "potency at the PTH receptor", "setting": "[3]; FIGS. 3A, 3B", "value": "retains high potency"},
      {"measurement": "EC50", "setting": "[3]", "value": 2.9, "unit": "nM"}
    ]},
    {"molecule": "(dK)K(γE-COC16H32CO2H)GSVSEIQLMHNLGKHLNSMERVEWLRKKLQDVHNF [SEQ ID NO: 10, acylated dipeptide attached to PTH (1-34)]", "values": [
      {"measurement": "potency at the PTH receptor", "setting": "[3]; FIGS. 3A, 3B", "value": "decreases the potency"}
    ]},
    {"molecule": "SVSEIQLAHNLGKHLNSMERVEWLRKKLQDVHK(γE-(miniPEG)2-γE-COC16H32CO2H)-OH (SVSEIQLAHNLGKHLNSMERVEWLRKKLQDVHK([γGlu-AEEA-AEEA-γGlu-C18 diacid])-OH; N-terminus assumed; SMILES CC[C@H](C)[C@H](NC(=O)[C@H](CCC(=O)O)NC(=O)[C@H](CO)NC(=O)[C@@H](NC(=O)[C@@H](N)CO)C(C)C)C(=O)N[C@@H](CCC(N)=O)C(=O)N[C@@H](CC(C)C)C(=O)N[C@@H](C)C(=O)N[C@@H](Cc1c[nH]cn1)C(=O)N[C@@H](CC(N)=O)C(=O)N[C@@H](CC(C)C)C(=O)NCC(=O)N[C@@H](CCCCN)C(=O)N[C@@H](Cc1c[nH]cn1)C(=O)N[C@@H](CC(C)C)C(=O)N[C@@H](CC(N)=O)C(=O)N[C@@H](CO)C(=O)N[C@@H](CCSC)C(=O)N[C@@H](CCC(=O)O)C(=O)N[C@@H](CCCNC(=N)N)C(=O)N[C@H](C(=O)N[C@@H](CCC(=O)O)C(=O)N[C@@H](Cc1c[nH]c2ccccc12)C(=O)N[C@@H](CC(C)C)C(=O)N[C@@H](CCCNC(=N)N)C(=O)N[C@@H](CCCCN)C(=O)N[C@@H](CCCCN)C(=O)N[C@@H](CC(C)C)C(=O)N[C@@H](CCC(N)=O)C(=O)N[C@@H](CC(=O)O)C(=O)N[C@H](C(=O)N[C@@H](Cc1c[nH]cn1)C(=O)N[C@@H](CCCCNC(=O)CC[C@H](NC(=O)COCCOCCNC(=O)COCCOCCNC(=O)CC[C@H](NC(=O)CCCCCCCCCCCCCCCCC(=O)O)C(=O)O)C(=O)O)C(=O)O)C(C)C)C(C)C; listed as Homo sapiens) [SEQ ID NO: 93, PTH(1-33), A8, K33(γE-2xOEG-γE-diacidC18)]", "values": [
      {"measurement": "reduction of in vitro potency by alanine substitution at position 8", "setting": "[3]", "value": "~100", "unit": "fold"},
      {"measurement": "potency at the PTH receptor", "setting": "[3]; FIG. 4", "value": "decreases PTH activity"}
    ]},
    {"molecule": "k(N-Me)GSVSEIQLMHNLGKHLNSMERVEWLRKKLQDVHK(γE-(miniPEG)2-γE-COC16H32CO2H)-OH [SEQ ID NO: 80]", "values": [
      {"measurement": "potency at the PTH receptor", "setting": "[3]; FIG. 4", "value": "decreases the potency"}
    ]}
  ]
}
